{"source": "patent US10980765B2", "about": "“Isothiocyanatostilbenes as a novel method and product for treating cancer” (BOARD OF SUPERVISORS OF LOUISIANA STATE UNIVERSITY AND …, priority 2015, dated 2021)", "key": {"Akt": {"system": "Akt", "assay": "Western blot of downstream Akt (phospho-Akt) in HGF-treated DU145 cells", "type": "cell-based", "conditions": "˜8 μM compound, 33 ng/ml HGF 20 min, serum-free", "method": "(§1) Western blot analysis: Cells were grown to ˜70% confluency prior to treatment. Cells were serum-starved in serum-free media for 30 minutes prior to treatment in complete media or serum-free media for the indicated times. Cell lysates were collected in Laemmli (125 mM Tris, 4% SDS, 0.01% bromophenol blue, 30% sucrose) containing 0.5% β-mercaptoethanol and boiled ˜8 minutes. Primary antibodies include: phospho-c-Met (Y1234/1235), phospho-Akt (S473), pEGFR […], pIGF-IRβ (Y1135/1136) (Cell Signaling Technology; Beverly, Mass.); α-actin (Sigma-Aldrich), c-Met (C-28) (Life Technologies). Secondary antibodies include: horseradish peroxidase-conjugated anti-rabbit and anti-mouse (GE Healthcare; Pittsburgh, Pa.). ECL 2 was used for chemiluminescent detection (Thermo Scientific; Rockford, Ill.). Densitometry was calculated using ImageJ (NIH)."}, "IGFR": {"target": "T1, IGFR (Homo sapiens, UniProt P08069)", "T1 construct": "endogenous in cells; host or cells: DU145", "T1 sequence (P08069 31-1367)": "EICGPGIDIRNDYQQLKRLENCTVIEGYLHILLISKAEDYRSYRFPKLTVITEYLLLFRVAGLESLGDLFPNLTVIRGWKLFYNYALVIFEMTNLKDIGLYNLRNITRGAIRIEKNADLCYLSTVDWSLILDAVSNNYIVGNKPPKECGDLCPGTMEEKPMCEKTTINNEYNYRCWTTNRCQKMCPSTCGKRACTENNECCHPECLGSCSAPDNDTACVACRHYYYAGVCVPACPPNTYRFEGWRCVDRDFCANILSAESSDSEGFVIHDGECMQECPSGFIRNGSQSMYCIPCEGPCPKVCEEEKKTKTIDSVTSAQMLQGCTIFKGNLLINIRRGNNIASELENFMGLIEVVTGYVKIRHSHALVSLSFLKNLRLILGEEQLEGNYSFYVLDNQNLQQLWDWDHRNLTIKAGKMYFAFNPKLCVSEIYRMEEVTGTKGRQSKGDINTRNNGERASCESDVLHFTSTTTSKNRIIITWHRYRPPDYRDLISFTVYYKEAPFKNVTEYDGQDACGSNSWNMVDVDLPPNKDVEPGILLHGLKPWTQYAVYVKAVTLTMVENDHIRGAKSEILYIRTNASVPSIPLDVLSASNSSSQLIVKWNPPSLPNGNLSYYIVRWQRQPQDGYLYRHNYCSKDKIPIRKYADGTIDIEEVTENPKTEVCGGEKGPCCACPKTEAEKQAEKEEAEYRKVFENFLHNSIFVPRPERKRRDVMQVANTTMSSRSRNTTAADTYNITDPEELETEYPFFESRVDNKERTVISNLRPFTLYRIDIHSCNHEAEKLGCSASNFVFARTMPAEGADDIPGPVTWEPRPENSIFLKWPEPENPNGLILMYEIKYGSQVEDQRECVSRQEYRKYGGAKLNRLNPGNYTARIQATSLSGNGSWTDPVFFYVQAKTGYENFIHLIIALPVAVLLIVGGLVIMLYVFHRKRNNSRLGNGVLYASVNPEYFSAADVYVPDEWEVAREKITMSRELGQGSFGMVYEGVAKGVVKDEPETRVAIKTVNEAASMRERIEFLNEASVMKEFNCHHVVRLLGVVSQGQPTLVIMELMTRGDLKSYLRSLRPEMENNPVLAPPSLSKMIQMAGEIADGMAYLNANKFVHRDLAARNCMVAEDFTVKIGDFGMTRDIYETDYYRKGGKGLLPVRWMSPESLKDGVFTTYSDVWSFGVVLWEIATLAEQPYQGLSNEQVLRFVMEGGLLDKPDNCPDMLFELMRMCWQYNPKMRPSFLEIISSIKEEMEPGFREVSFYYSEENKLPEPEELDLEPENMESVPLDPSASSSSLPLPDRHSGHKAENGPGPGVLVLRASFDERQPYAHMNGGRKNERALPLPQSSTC", "assay": "Western blot of IGFR activation by IGF in DU145 cells", "type": "cell-based", "conditions": "4 μM DIDS or 25 μM H2DIDS; DU145, 100 ng/ml IGF 20 min", "method": "as §1"}, "DU145 cells [1]": {"system": "DU145 cells", "assay": "Scattering assay", "type": "cell-based", "conditions": "4 μM DIDS or 25 μM H2DIDS", "method": "(§2) Cells were fixed and stained for actin. Representative images are shown. […] Data are shown as mean±S.E.M.; n=3.\nCells were fixed and stained for actin. Representative images are shown.\nScattering assay: DU145 cells were grown to ˜50% confluency. […] Cells were fixed with 4% paraformaldehyde and stained with Oregon Green 488 phalloidin (Invitrogen; Carlsbad, Calif.). Images were acquired on an Eclipse TE300 inverted microscope (Nikon; Tokyo, Japan) with NIS Elements version 4.13.04 software. Presented images were taken using a 10× objective."}, "DU145 cells [2]": {"system": "DU145 cells", "assay": "Wound healing", "type": "cell-based", "method": "as §2\n(§3) For invasion (FIGS. 4C and 4D), wounded cells were overlaid with Matrigel diluted 1:5 in serum-free media; n=3.\n(§4) Wound healing and invasion: DU145 cells were grown to ˜100% confluency prior to wounding with the IncuCyte™ WoundMaker™ (Essen Bioscience; Ann Arbor, Mich.) and washed once with complete media. For invasion, cells were covered with Matrigel diluted 1:5 in serum-free RPMI following wounding. […] Images were taken every 4 hours with the IncuCyte™ ZOOM imaging system (Essen Bioscience). Quadruplicate replicates were used in each experiment. Data are presented as percent wound density ±standard error of the mean (S.E.M.)."}, "DU145 cells [3]": {"system": "DU145 cells", "assay": "Invasion through Matrigel", "type": "cell-based", "conditions": "indicated concentrations; 33 ng/mL HGF; Matrigel 1:5", "method": "as §3, §4"}, "Cells": {"system": "Cells", "assay": "2D proliferation (Cell Titer Blue)", "type": "cell-based", "conditions": "24-72 hours", "method": "A TO timepoint was also measured. For each timepoint, cells were exposed to Cell Titer Blue reagent (Promega) for 1 hour at 37° C. 5% CO2. Experiments were performed with quadruplicate replicates. Fluorescence was measured using a BioTek Synergy 4 plate reader with Gen5 software."}, "wild-type c-Met": {"target": "wild-type c-Met (Homo sapiens, UniProt P08581)", "sequence (P08581 25-1390)": "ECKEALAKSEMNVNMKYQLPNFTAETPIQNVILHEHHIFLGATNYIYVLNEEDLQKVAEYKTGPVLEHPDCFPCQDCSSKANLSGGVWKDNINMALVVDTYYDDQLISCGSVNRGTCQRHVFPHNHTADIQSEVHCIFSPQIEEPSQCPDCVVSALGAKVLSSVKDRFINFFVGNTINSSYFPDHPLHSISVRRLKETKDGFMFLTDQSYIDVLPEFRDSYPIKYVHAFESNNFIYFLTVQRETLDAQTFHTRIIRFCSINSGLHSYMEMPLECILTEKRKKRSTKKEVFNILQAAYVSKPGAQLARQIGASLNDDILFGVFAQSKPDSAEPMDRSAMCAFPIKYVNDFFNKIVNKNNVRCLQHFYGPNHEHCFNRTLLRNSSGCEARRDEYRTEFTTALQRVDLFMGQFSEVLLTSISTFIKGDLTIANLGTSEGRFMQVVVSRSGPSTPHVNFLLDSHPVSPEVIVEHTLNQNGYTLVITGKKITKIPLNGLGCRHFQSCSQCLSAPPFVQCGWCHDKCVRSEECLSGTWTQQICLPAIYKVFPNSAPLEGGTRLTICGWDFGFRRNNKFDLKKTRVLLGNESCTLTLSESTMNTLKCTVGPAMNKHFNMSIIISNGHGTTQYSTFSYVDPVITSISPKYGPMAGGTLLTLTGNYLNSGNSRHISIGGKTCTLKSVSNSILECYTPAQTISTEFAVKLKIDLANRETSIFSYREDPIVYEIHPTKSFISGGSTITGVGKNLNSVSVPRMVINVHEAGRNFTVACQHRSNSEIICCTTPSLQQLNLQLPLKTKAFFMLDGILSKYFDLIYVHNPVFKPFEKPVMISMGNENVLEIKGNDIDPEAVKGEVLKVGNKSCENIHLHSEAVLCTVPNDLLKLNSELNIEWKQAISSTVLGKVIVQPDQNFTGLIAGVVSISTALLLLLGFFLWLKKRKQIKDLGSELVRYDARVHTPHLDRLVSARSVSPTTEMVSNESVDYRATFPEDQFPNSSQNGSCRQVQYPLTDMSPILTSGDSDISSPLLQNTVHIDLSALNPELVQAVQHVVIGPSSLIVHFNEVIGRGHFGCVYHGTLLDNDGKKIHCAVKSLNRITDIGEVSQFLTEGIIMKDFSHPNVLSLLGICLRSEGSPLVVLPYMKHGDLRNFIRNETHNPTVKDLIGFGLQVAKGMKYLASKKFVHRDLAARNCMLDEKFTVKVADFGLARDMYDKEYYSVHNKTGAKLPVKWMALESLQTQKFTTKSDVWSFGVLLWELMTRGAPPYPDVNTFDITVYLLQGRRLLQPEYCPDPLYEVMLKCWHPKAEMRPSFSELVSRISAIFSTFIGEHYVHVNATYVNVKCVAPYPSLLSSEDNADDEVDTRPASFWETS", "assay": "Phosphorylation inhibition assay (Z′-LYTE Kinase Assay-Tyr6 Peptide), wild-type c-Met", "type": "biochemical", "conditions": "cell-free kinase assay, 200 μM ATP; read-out: IC50, activation of wild-type c-Met", "method": "(§5) Western blot was used to analyze pMet expression. […] Western blot was used to analyze the indicated proteins.\n(§6) Phosphorylation inhibition assay: Z′-LYTE™ Kinase Assay-Tyr6 Peptide kit (Invitrogen) was used to assess the ability of tested compounds to inhibit c-Met phosphorylation. […] After 1 hour incubation at room temperature, 10 μl development solution containing site-specific protease was added to each well. Incubation was continued for 1 hour. The reaction was then stopped, and the fluorescent signal ratio of 445 nm (coumarin)/520 nm (fluorescein) was determined on a plate reader (BioTek FLx800™), which reflects the peptide substrate cleavage status and/or the kinase inhibitory activity in the reaction. […] The IC50 value for each compound was calculated by nonlinear regression of log concentration versus % c-Met phosphorylation ±S.E.M., implemented in GraphPad Prism version 5.0 (GraphPad Software, CA, USA)."}, "c-Met M1250T (M1268T)": {"target": "c-Met M1250T (M1268T) (Homo sapiens, UniProt P08581, M1250T)", "sequence (P08581 956-1390 M1250T limits assumed)": "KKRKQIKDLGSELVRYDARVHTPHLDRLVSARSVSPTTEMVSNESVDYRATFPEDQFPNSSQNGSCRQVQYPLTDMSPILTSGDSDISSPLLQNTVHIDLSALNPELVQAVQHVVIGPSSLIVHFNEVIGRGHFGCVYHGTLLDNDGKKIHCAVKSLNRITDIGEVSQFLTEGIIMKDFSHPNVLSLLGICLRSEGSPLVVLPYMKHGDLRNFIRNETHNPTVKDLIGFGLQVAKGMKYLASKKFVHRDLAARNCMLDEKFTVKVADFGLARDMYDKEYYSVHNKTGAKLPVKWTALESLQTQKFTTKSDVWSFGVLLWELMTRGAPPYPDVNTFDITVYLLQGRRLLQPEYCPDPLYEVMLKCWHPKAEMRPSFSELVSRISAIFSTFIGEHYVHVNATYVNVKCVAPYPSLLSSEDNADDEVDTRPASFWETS", "assay": "Phosphorylation inhibition assay (Z′-LYTE Kinase Assay-Tyr6 Peptide), mutant c-Met", "type": "biochemical", "conditions": "cell-free kinase assay, 200 μM ATP", "method": "as §5, §6"}, "[4]": {"system": "protein translocation across the ER membrane", "conditions": "cited from earlier work"}, "[5]": {"system": "matrix metalloproteinase release", "conditions": "cited from earlier work"}, "[6]": {"system": "interaction of human immunodeficiency virus type-1 (HIV-1) with CD4 T-cell receptors", "conditions": "cited from earlier work"}, "succinic dehydrogenase": {"system": "succinic dehydrogenase", "conditions": "cited from earlier work"}, "F0F1-ATP synthase": {"system": "F0F1-ATP synthase", "conditions": "cited from earlier work"}, "c-Met": {"target": "c-Met (Homo sapiens, UniProt P08581)", "sequence (P08581 25-1390)": "as the sequence (P08581 25-1390) above", "assay": "Western blot of pMet in c-Met amplified H1993 lung cancer cells without HGF", "type": "cell-based", "design": "endogenous in cells", "conditions": "5 μM compound; no HGF, constitutive c-Met activation", "method": "as §5\nH1993 cells have c-Met amplification such that they have high levels of pMet, even in the absence of HGF, due to constitutive c-Met dimerization and autophosphorylation.\nas §1"}}}
{"smiles": "O=S(=O)(O)c1cc(N=C=S)ccc1C=Cc1ccc(N=C=S)cc1S(=O)(=O)O", "note": "[DIDS, 4,4′-Diisothiocyanatostilbene-2,2′-disulfonic acid]", "values": [{"measurement": "reduction of downstream Akt", "setting": "Akt", "value": "~90", "unit": "%"}, {"measurement": "IGFR activation", "setting": "IGFR", "value": "do not significantly reduce"}, {"measurement": "HGF-induced cell scattering", "setting": "DU145 cells [1]; 33 ng/ml HGF overnight", "value": "able to reduce HGF-induced"}, {"measurement": "EGF-induced cell scattering", "setting": "DU145 cells [1]; 100 ng/ml EGF overnight", "value": "not EGF-induced"}, {"measurement": "HGF-induced wound healing", "setting": "DU145 cells [2]; 4 μM DIDS or 25 μM H2DIDS, 33 ng/ml HGF", "value": "significantly reduced"}, {"measurement": "EGF-mediated wound healing", "setting": "DU145 cells [2]; 4 μM DIDS or 25 μM H2DIDS, 100 ng/ml EGF", "value": "minimal effects"}, {"measurement": "HGF-induced wound healing, dose response", "setting": "DU145 cells [2]; indicated concentrations, 33 ng/mL HGF", "value": "reduce HGF-induced wound healing in a dose response manner"}, {"measurement": "HGF-induced invasion through Matrigel", "setting": "DU145 cells [3]", "value": "inhibited HGF-induced invasion through Matrigel in a dose-dependent manner"}, {"measurement": "proliferation in complete media in 2D assay", "setting": "Cells; complete media", "value": "minimal effects"}, {"measurement": "serum-free proliferation in 2D assay", "setting": "Cells; serum-free media", "value": "minimal effects"}, {"measurement": "IC50", "setting": "wild-type c-Met", "value": 300, "unit": "nM"}, {"measurement": "IC50", "setting": "c-Met M1250T (M1268T)", "value": 370, "unit": "nM"}, {"measurement": "concentration inhibiting protein translocation across the ER membrane", "setting": "[4]", "value": "≥ 400", "unit": "µM"}, {"measurement": "concentration inhibiting matrix metalloproteinase release", "setting": "[5]", "value": "≥ 400", "unit": "µM"}, {"measurement": "concentration preventing interaction of HIV-1 with CD4 T-cell receptors", "setting": "[6]", "value": "low micromolar concentrations"}, {"measurement": "concentration reducing activity of succinic dehydrogenase", "setting": "succinic dehydrogenase", "value": "low micromolar concentrations"}, {"measurement": "concentration reducing activity of F0F1-ATP synthase", "setting": "F0F1-ATP synthase", "value": "low micromolar concentrations"}, {"measurement": "pMet levels in H1993 cells", "setting": "c-Met", "value": "much less significant effects"}]}
